Source: US20020177554A1, “Novel peptides for use in treatment of T-cell mediated cartilage destruction in autoimmune diseases” (Akzo Nobel N.V., priority 1995, published 2002)
Ends that are not written are not given here.

B1: HAG3 (peptide)
peptide: H-AGWLADGSLRYPI-OH
notes: Synthetic peptide with free amino and carboxy termini; The residue range on HAG is not tied to this label
B2: HAG2 (peptide)
peptide: H-AGWLADRSVRYPI-OH
notes: as for B1

Columns and labels:
PBMC from RA patients = experiment: Proliferative responses of PBMC from RA patients ([3H]thymidine incorporation); type: cell-based, human; settings: peptide 50 μg/ml, mean of three or four measurements
[1] = target: T1, HLA-DR4 (DRB1*0401) molecules, affinity purified (human); experiment: semi-quantitative competition with biotinylated IHA(307-319)F for purified HLA-DR; range taken from the table legend for grade ++
T1 construct: mature; Used at 0.05-5 uM in the assay

[2] = target: T1, HLA-DR4 (DRB1*0401) molecules, affinity …; experiment: semi-quantitative competition with biotinylated IHA(307-319)F for purified HLA-DR; relative IC50 grade read by eye from ECL blot
[3] = target: T1, HLA-DR4 (DRB1*0401) molecules, affinity …; experiment: semi-quantitative competition with biotinylated IHA(307-319)F for purified HLA-DR; range taken from the table legend for grade +

Molecule	Proliferative response of PBMC, [3H]TdR incorporation (PBMC from RA patients; donor 191 (RA), background 320) [count per 5 min]	Proliferative response of PBMC, [3H]TdR incorporation (PBMC from RA patients; donor 209 (RA), background 405) [count per 5 min]	IC50 [1] [µM]	relative binding affinity IC50 (eIC50) [2] [µM]	also measured
AGWLADGSLRYPI [HAG3]	233	1094	–	–	–
AGWLADRSVRYPI [HAG2]	1061	1115	–	–	–
AGWLSDGSVQYPI [HCLP1]	–	1503	–	–	Proliferative response of PBMC, [3H]TdR incorporation (PBMC from RA patients; donor 227 (RA), background 833): 1964 count per 5 min
B1	–	–	1 to 10	1 to 10	–
B2	–	–	1 to 10	1 to 10	–
AGWLSDGSVQYPI (also called HCIP1) [HCLP1]	–	–	–	10 to 100	IC50 [3]: 10 to 100 µM
